Measured values as given in patent US9113629B2, “4-amino-6-(4-substituted-phenyl)-picolinates and 6-amino-2-(4-substituted-phenyl)-pyrimidine-4-carboxylates and their use as herbicides” (DOW AGROSCIENCES LLC, priority 2013, dated 2015).
Like-named read-outs stand apart in the source and are kept apart here.

Legend:
[1] = system: Key Grass and Sedge Weeds as well as Grass Crops; test: Post-emergent Test II herbicidal activity (Table 6); type: in vivo; details: post-emergence, 336 h; for pest or weed control at 70 g/ha: application rate 70 g ai/ha; for pest or weed control at 140 g/ha: application rate 140 g ai/ha
Summary of the method: (§1)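 Foliar application at 187 L/ha to greenhouse-grown seedlings (first or second true leaf); subirrigation thereafter. Visual 0–100% injury at 14 d relative to untreated plants.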

[2] = system: Key Broadleaf Weed and Crop Species; test: Post-emergent Test II herbicidal activity (Table 5); type: in vivo; details: post-emergence, 336 h, post-emergent, 14 days after application; for pest or weed control at 70 g/ha: 70 g ai/ha; for pest or weed control at 140 g/ha: 140 g ai/ha
Summary of the method: as §1

[3] = Triticum aestivum, TRZSS (wheat), read-out: Visual Growth Reduction (%) 14 Days After Application, TRZSS
[4] = CYPES: yellow nutsedge (Cyperus esculentus), read-out: Visual Growth Reduction (%) 14 Days After Application, CYPES
[5] = DIGSA: crabgrass (Digitaria sanguinalis), read-out: Visual Growth Reduction (%) 14 Days After Application, DIGSA
[6] = ECHCG: barnyardgrass (Echinochloa crus-galli), read-out: Visual Growth Reduction (%) 14 Days After Application, ECHCG
[7] = ORYSA: rice (Oryza sativa), read-out: Visual Growth Reduction (%) 14 Days After Application, ORYSA
[8] = SETFA: giant foxtail (Setaria faberi), read-out: Visual Growth Reduction (%) 14 Days After Application, SETFA
[9] = SORVU: grain sorghum (Sorghum vulgare), read-out: Visual Growth Reduction (%) 14 Days After Application, SORVU
[10] = ZEAMX: maize, corn (Zea mays), read-out: Visual Growth Reduction (%) 14 Days After Application, ZEAMX
[11] = ABUTH: velvetleaf (Abutilon theophrasti), read-out: Visual Growth Reduction (%) 14 Days After Application ABUTH
[12] = AMARE: redroot pigweed (Amaranthus retroflexus), read-out: Visual Growth Reduction (%) 14 Days After Application AMARE
[13] = BRSNN: oilseed-rape, canola (Brassica napus), read-out: Visual Growth Reduction (%) 14 Days After Application BRSNN
[14] = CHEAL: lambsquarters (Chenopodium album), read-out: Visual Growth Reduction (%) 14 Days After Application CHEAL
[15] = EPHHL: wild poinsettia (Euphorbia heterophylla), read-out: Visual Growth Reduction (%) 14 Days After Application EPHHL
[16] = HELAN: sunflower (Helianthus annuus), read-out: Visual Growth Reduction (%) 14 Days After Application HELAN
[17] = VIOTR: wild pansy (Viola tricolor), read-out: Visual Growth Reduction (%) 14 Days After Application VIOTR

melting point: 156 to 158 °C
SMILES: C=Cc1c(N)nc(-c2ccc(F)c(F)c2F)nc1C(=O)OC [Compound 197, Methyl 6-amino-2-(2,3,4-trifluorophenyl)-5-vinylpyrimidine-4-carboxylate]
pest or weed control at 70 g/ha [1, 3]: 0 to 29%
pest or weed control at 140 g/ha [1, 3]: 0 to 29%
pest or weed control at 70 g/ha [1, 4]: 60 to 74%
pest or weed control at 140 g/ha [1, 4]: 60 to 74%
pest or weed control at 70 g/ha [1, 5]: 45 to 59%
pest or weed control at 140 g/ha [1, 5]: 60 to 74%
pest or weed control at 70 g/ha [1, 6]: 0 to 29%
pest or weed control at 140 g/ha [1, 6]: 75 to 84%
pest or weed control at 70 g/ha [1, 7]: 0 to 29%
pest or weed control at 140 g/ha [1, 7]: 0 to 29%
pest or weed control at 70 g/ha [1, 8]: 0 to 29%
pest or weed control at 140 g/ha [1, 8]: 0 to 29%
pest or weed control at 70 g/ha [1, 9]: 60 to 74%
pest or weed control at 140 g/ha [1, 9]: 60 to 74%
pest or weed control at 70 g/ha [1, 10]: 60 to 74%
pest or weed control at 140 g/ha [1, 10]: 60 to 74%
pest or weed control at 70 g/ha [2, 11]: 95 to 100%
pest or weed control at 140 g/ha [2, 11]: 95 to 100%
pest or weed control at 70 g/ha [2, 12]: 95 to 100%
pest or weed control at 140 g/ha [2, 12]: 95 to 100%
pest or weed control at 70 g/ha [2, 13]: 95 to 100%
pest or weed control at 140 g/ha [2, 13]: 85 to 94%
pest or weed control at 70 g/ha [2, 14]: 95 to 100%
pest or weed control at 140 g/ha [2, 14]: 95 to 100%
pest or weed control at 70 g/ha [2, 15]: 95 to 100%
pest or weed control at 140 g/ha [2, 15]: 95 to 100%
pest or weed control at 70 g/ha [2, 16]: 85 to 94%
pest or weed control at 140 g/ha [2, 16]: 85 to 94%
pest or weed control at 70 g/ha [2, 17]: 60 to 74%
pest or weed control at 140 g/ha [2, 17]: 75 to 84%
